# Several values for one entry are separate records, joined by “and”; a condition that tells them apart may be missing. Equal values may be shown once.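 Step 1: Grow cells in 96-well plates. Step 2: Expose to compound for 48 hours at 5 concentrations. Step 3: Interpolate endpoints linearly; if unreached, use highest concentration. GI50: concentration for 50% inhibition of growth. TGI marks complete inhibition of growth.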
# Key:
# Assay in all cases: DTP human tumour cell line panel, 48 h
# [1] = tested on: 786-0 renal
# [2] = tested on: ACHN renal
# [3] = tested on: CCRF-CEM leukemia
# [4] = tested on: COLO 205 colon
# [5] = tested on: HL-60(TB) leukemia
# [6] = tested on: NCI/ADR-RES ovarian
# [7] = tested on: PC-3 prostate
# [8] = tested on: SK-MEL-2 melanoma
# [9] = tested on: SNB-19 CNS
# [10] = tested on: LOX IMVI melanoma
SMILES,GI50 [1],TGI [1],GI50 [2],TGI [2],GI50 [3],TGI [3] [µM],GI50 [4],TGI [4],GI50 [5],TGI [5],GI50 [6],TGI [6],GI50 [7],TGI [7],GI50 [8],TGI [8],GI50 [9],TGI [9],TGI [10],GI50 [10]
COc1ccc(-c2nn(-c3ccc(NC(=O)c4ccc(Cl)c(C(F)(F)F)c4)cc3)cc2-c2ccncc2)cc1Cl,0.187 µM,0.449 µM,1.58 µM,> 100 µM,0.582 µM,> 100,1.27 µM,3.48 µM,0.794 µM,> 100 µM,2.07 µM,> 100 µM,0.669 µM,> 100 µM,0.345 µM,1.44 µM,1.96 µM,> 100 µM,,
NC1=NC(c2ccc(Cl)cc2)N(c2ccc(S(=O)(=O)Nc3ncccn3)cc2)C(N)=N1 (configuration not stated),,> 100 µM,,> 100 µM,,> 100,,> 100 µM,,1.08 µM,,> 100 µM,,> 100 µM,,> 100 µM,,> 100 µM,> 100 µM,
COc1ccc(C(C#N)NC23CC4CC(CC(C4)C2)C3)cc1OC (configuration not stated),,> 100 µM,,> 100 µM,,> 100,,> 100 µM,,> 100 µM,,> 100 µM,,> 100 µM,,> 100 µM,,> 100 µM,> 100 µM,
O=C(/C=C/C12c3ccccc3C(c3ccccc31)C1C(=O)N(c3ccccc3)C(=O)C12)c1ccc(Cl)cc1 (configuration not stated),2.44 µM,6.97 µM,1.39 µM,2.81 µM,0.566 µM,> 100,1.79 µM,3.58 µM,0.795 µM,5.18 µM,2.16 µM,8.47 µM,1.42 µM,8.27 µM,2.48 µM,5.86 µM,2.68 µM,> 100 µM,3.25 µM,1.65 µM
COc1cc([N+](=O)[O-])c(S(=O)(=O)O)cc1NS(=O)(=O)c1ccc(C)cc1,,> 100 µM,,> 100 µM,,> 100,,> 100 µM,,> 100 µM,,> 100 µM,,> 100 µM,,> 100 µM,,> 100 µM,> 100 µM,
COc1cc(NS(C)(=O)=O)ccc1Nc1c2ccccc2nc2c(C)cccc12,0.16 µM and 0.17 µM,0.923 µM and 1.34 µM,0.0427 µM and 0.0464 µM,1.28 µM and 1.57 µM,0.0322 µM and 0.0364 µM,,0.245 µM and 0.243 µM,2.59 µM and 5.16 µM,0.0403 µM and 0.046 µM,0.889 µM and 0.669 µM,0.992 µM and 1.45 µM,76.1 µM and 54.9 µM,0.629 µM and 1.05 µM,18.6 µM and 25.5 µM,6.54 µM and 1.72 µM,20.8 µM and 10.4 µM,0.196 µM and 0.23 µM,15.5 µM and 15.9 µM,1.35 µM and 1.51 µM,0.0512 µM and 0.0544 µM
Cn1cc(C2=C(c3c4n(c5ccccc35)CCCC4)C(=O)NC2=O)c2ccccc21,> 17.8 µM,> 25 µM,20.4 µM,> 25 µM,> 15.3 µM,> 25,10.7 µM,> 25 µM,9.59 µM,> 25 µM,7.81 µM,> 25 µM,10.4 µM,> 25 µM,10.1 µM,> 25 µM,20.6 µM,> 25 µM,> 25 µM,16.6 µM
COc1cc(-c2nn(-c3ccc(NC(=O)Nc4ccc(Cl)c(Cl)c4)cc3)cc2-c2ccncc2)ccc1Cl,2.4 µM,5.43 µM,3.35 µM,> 100 µM,3.16 µM,> 100,1.97 µM,4.2 µM,3.55 µM,> 100 µM,3.24 µM,> 100 µM,2.89 µM,> 100 µM,3.44 µM,39.7 µM,5.29 µM,> 100 µM,4.75 µM,1.98 µM
CN(Cc1cnc(N)nc1N)c1ccc(C(=O)O)cc1,> 100 µM,> 100 µM,> 100 µM,> 100 µM,> 100 µM,> 100,> 100 µM,> 100 µM,> 100 µM,> 100 µM,> 100 µM,> 100 µM,> 100 µM,> 100 µM,> 100 µM,> 100 µM,> 100 µM,> 100 µM,> 100 µM,> 100 µM
COC1C(O)C(C)OC(OC2C(Oc3cccc4c(O)c5c(=O)oc6ccc(C)c7c(=O)oc(c34)c5c67)OC(C)C3O[C@H](c4ccccc4)OC32)C1O (some centres not stated),,7.16 µM,0.0276 µM,,0.0752 µM and 0.0731 µM,8.82,0.258 µM and 0.204 µM,5.59 µM,,4.53 µM,,10.8 µM,0.243 µM,8.71 µM,0.937 µM,6.07 µM,,19.2 µM,1.72 µM,0.199 µM and 0.048 µM
CC(=O)Nc1ccc(-c2c3nc(c(-c4cc5ccccc5[n+](C)c4)c4ccc([nH]4)c(-c4ccc(NC(C)=O)cc4)c4nc(c(-c5cc6ccccc6[n+](C)c5)c5ccc2[nH]5)C=C4)C=C3)cc1,9.97 µM,35.6 µM,10.3 µM,26.6 µM,0.721 µM,> 50,12.9 µM,26.7 µM,10.1 µM,29.2 µM,13.3 µM,45.7 µM,15.1 µM,> 50 µM,15 µM,> 50 µM,10.9 µM,49.1 µM,> 50 µM,12.5 µM
CC1=CC[C@@H]2C(C)(C)C(=O)CC[C@@]2(C)[C@@H]1COc1ccc2ccc(=O)oc2c1,46.8 µM,> 100 µM,15.3 µM,79.9 µM,5.48 µM,70.9,10.6 µM,39.4 µM,7.3 µM,29.2 µM,4.06 µM,19.9 µM,5.41 µM,31.8 µM,11.5 µM,42.3 µM,32.9 µM,> 100 µM,48.6 µM,17.6 µM
CCNC(C)(C)C(SS)c1ccc(Br)cc1 (configuration not stated),,49.6 µM,,> 100 µM,,60,,> 100 µM,,53 µM,,> 100 µM,,> 100 µM,,> 100 µM,,> 100 µM,60.1 µM,
O=S(=O)(Nc1cc(Br)c(O)c2ccccc12)c1ccc(F)cc1,3.35 µM,11.3 µM,3.31 µM,14.1 µM,0.76 µM,8.29,10.7 µM,29.5 µM,2.61 µM,6.95 µM,2.96 µM,8.68 µM,2.93 µM,12.9 µM,3.42 µM,16.2 µM,9.35 µM,28 µM,4.88 µM,2.07 µM

# — PubChem BioAssay (NCI)
